Results on 9 compounds are retold here after patent publication EP0181109B1, “N6-benzopyrano- and benzothiopyrano-adenosines” (WARNER-LAMBERT COMPANY, priority 1984, dated 1986).

In one data set the target is T1, adenosine A2 receptor (Rattus norvegicus, UniProt P30543).
T1 construct: Brains were thawed and then kept on ice while the striata were dissected out; tissue Pel-Freez (Rogers, Arkansas); host or cells: rat striatum (membranes)
In words: Adenosine Receptor Binding - A2 Receptor Affinity (RBA2), [3H]NECA displacement in striatal membranes. The conditions noted are these: 4 nM [3H]NECA, 50 nM N6-cyclopentyladenosine, 60 minutes at 25°C, read-out: RBA-2 (IC50, A2 receptor affinity). The protocol:
Brains from 200-500 g mixed sex Sprague-Dawley rats were purchased from Pel-Freez (Rogers, Arkansas). Fresh brains from male Long-Evans hooded rats (Blue Spruce Farms, Altamont, NY) gave essentially identical results. Brains were thawed and then kept on ice while the striata were dissected out. Striata were disrupted in 10 vol of ice-cold 50 mM Tris·HCl (pH 7.7 at 25°C, pH 8.26 at 5°C) (Tris) for 30 seconds in a Polytron PT―10 (Brinkmann) at setting 5. The suspension was centrifuged at 50,000 xg for ten minutes, the supernatant discarded, the pellet resuspended in 10 vol ice-cold Tris as above, recentrifuged, resuspended at 1 g/5 ml, and stored in plastic vials at -70°C (stable for at least six months). When needed, tissue was thawed at room temperature, disrupted in a Polytron, and kept on ice until used.
All incubations were for 60 minutes at 25°C in 12 x 75 mm glass tubes containing 1 ml Tris with 5 mg original tissue weight of rat weight of rat striatal membranes, 4 nM [^3H]-N-ethyl adenosine-5'-carboxamide ([^3H]NECA), 50 nM N^s-cyclopentyladenosine (to eliminate A1 receptor binding), 10 mM MgCI2, 0.1 units/ml of adenosine deaminase and 1% dimethylsulfoxide. N^6-Cyclopentyladenosine was dissolved at 10 mM in 0.02 N HCI and diluted in Tris. Stock solutions and dilutions of N^6-cyclopentyladenosine could be stored at -20°C for several months. Test compounds were dissolved at 10 mM in dimethylsulfoxide on the same day as the experiment, and diluted in dimethylsulfoxide to 100x the final incubation concentration. Control incubations received an equal volume (10 µl) of dimethylsulfoxide; the resulting concentration of dimethylsulfoxide had no effect on binding. [^3H]NECA was diluted to 40 nM in Tris. The membrane suspension (5 mg/0.79 ml) contained sufficient MgC12 and adenosine deaminase to give 10 mM and 0.1 units/ml, respectively, final concentration in the incubation. […] After all additions, the rack of tubes was vortexed, and the tubes were then incubated for 60 min at 25°C in a shaking water bath. The rack of tubes was vortexed an additional time halfway through the incubation.
Incubations were terminated by filtration through 2.4 cm GF/B filters under reduced pressure. Each tube was filtered as follows: the contents of the tube were poured onto the filter, 4 ml of ice-cold Tris were added to the tube and the contents poured onto the filter, and the filter was washed twice with 4 ml of ice-cold Tris. The filtration was complete in about 12 seconds. Filters were put in scintillation vials, 8 ml of Formula 947 scintillation fluid added, and the vials left overnight, shaken, and counted in a liquid scintillation counter at 40% efficiency.
Nonspecific binding was defined as binding in the presence of […] N^6-cyclopentyladenosine, and specific binding was defined as total binding minus nonspecific binding. The IC50 was calculated by weighted nonlinear least squares curve-fitting to the mass action equation. [formula] • where Y is cpm bound • T is cpm total binding without drug • S is cpm specific binding without drug • D is the concentration of drug • and K is the IC50 of the drug Weighting factors were calculated under the assumption that the standard deviation was proportional to the predicted value of Y. Nonspecific binding was treated as a very large (infinite) concentration of drug in the computer analysis.

The test system of a further data set is spontaneous locomotion. In words: Mouse Activity and Screen Test Procedure (MAST): locomotor activity in actophotometer. It is filed as in vivo, Swiss-Webster male mice. The conditions noted are these: one hour prior to testing. Here is the method: (§1) Nine unfasted Swiss-Webster male mice weighing 20-30 g are equally divided into three groups for each drug dose to be tested. There is, data for each dose level was generated by three separate groups of three mice each.
(§2) A minimum of three dose levels (10, 30, and 100 mg/kg) are tested for each drug. Treatments are administered intraperitoneally one hour prior to testing. All dosages are calculated as parent compound and given in volumes of 10 ml/kg. Compounds are dissolved or suspended in 0.2% Methocel. Control animals are injected with Methocel.
The actophotometer consists of a cylindrical chamber whose center is occupied by another cylinder which contains the illumination for six photocells located on the perimeter of the chamber. Six light-beam interruptions equal one count. Locomotor activity is recorded by computer at ten minute intervals for 60 minutes.
Data: The data obtained from the screen test are expressed as percent of mice falling off the screen. Data derived from locomotor activity of drug treated mice are compared to the activity of vehicle treated animals and are expressed as percent inhibition of spontaneous locomotion. All percentages reported for inhibition of locomotion (LI) are based upon data accumulated for one hour. […] An overall dose rating is obtained by the following criteria:
LAD refers to the lowest dose at which an A rating is achieved. […] The compounds are identified in the Examples.

The subject of data set [1] is mice falling off the inverted screen. In words: Mouse Activity and Screen Test Procedure (MAST): screen test (ST). It is filed as in vivo, Swiss-Webster male mice. To be noted: one hour postinjection, percent of mice falling off the screen.
Source text: The compounds of the invention are new chemical substances which are useful as pharmaceutical agents for the treatment of psychoses. The antipsychotic activity of representative compounds of the invention was established by the Mouse Activity and Screen Test Procedure (MAST) described below.
as §1, §2
Testing: A two part testing procedure is started one hour postinjection. First, the screen test (ST) is performed (see Pharmac. Biochem. Behav. 6,351-353,1977). Briefly this test consists of placing mice on individual wire screens which are then rotated 180 degrees at the start of a 60 second observation period. The number of mice falling off the inverted screen is recorded.
Data: The data obtained from the screen test are expressed as percent of mice falling off the screen. Data derived from locomotor activity of drug treated mice are compared to the activity of vehicle treated animals and are expressed as percent inhibition of spontaneous locomotion. All percentages reported for inhibition of locomotion (LI) are based upon data accumulated for one hour. Both phases of testing are graded: A=60-100%; C=31-59%; and N=0-30%. An overall dose rating is obtained by the following criteria:
LAD refers to the lowest dose at which an A rating is achieved. […] Utilizing this procedure, an overall dose rating of A was obtained for the noted compound at the indicated dose. The compounds are identified in the Examples.

The structures appear in SMILES notation.

T1 sequence (P30543 whole entry): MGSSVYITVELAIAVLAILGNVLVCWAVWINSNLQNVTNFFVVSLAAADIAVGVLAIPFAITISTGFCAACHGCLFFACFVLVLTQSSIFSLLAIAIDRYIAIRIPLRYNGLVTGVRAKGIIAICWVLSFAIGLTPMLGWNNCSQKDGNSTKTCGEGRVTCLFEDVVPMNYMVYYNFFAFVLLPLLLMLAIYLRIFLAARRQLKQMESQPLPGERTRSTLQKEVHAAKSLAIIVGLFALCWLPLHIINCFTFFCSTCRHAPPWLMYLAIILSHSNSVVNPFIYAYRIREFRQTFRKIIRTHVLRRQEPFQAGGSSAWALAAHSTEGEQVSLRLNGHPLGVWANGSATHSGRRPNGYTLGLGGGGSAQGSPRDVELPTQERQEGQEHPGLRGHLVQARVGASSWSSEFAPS

`COc1ccc2c(c1)CC(Nc1ncnc3c1ncn3[C@@H]1O[C@H](CO)[C@@H](O)[C@H]1O)CO2` (stereo partly drawn) [Example 6]: on adenosine A2 receptor, the IC50 worked out at 1090 nM. Further, the “Inhibition of Mouse Locomotion Activity” value with spontaneous locomotion (1 mg/kg intraperitoneally) came out at 45%; in the data set with spontaneous locomotion (3 mg/kg intraperitoneally), 77%; in the data set with spontaneous locomotion (10 mg/kg intraperitoneally), 98%; with spontaneous locomotion (30 mg/kg intraperitoneally), 98%; in the data set with spontaneous locomotion (100 mg/kg intraperitoneally) it was 100%. Moreover, the “Screen Test Failure” value in data set [1] (1 mg/kg intraperitoneally) amounted to 0%; in data set [1] (3 mg/kg intraperitoneally), 0%; in data set [1] (10 mg/kg intraperitoneally), 77%; in data set [1] (30 mg/kg intraperitoneally), 99%; in data set [1] (100 mg/kg intraperitoneally), 99%.
Turning to `OC[C@H]1O[C@@H](n2cnc3c(NC4CCSc5ccccc54)ncnc32)[C@H](O)[C@@H]1O` (stereo partly drawn) [Example 15], the IC50 at adenosine A2 receptor turned out to be 86.5 nM. Besides, the “Inhibition of Mouse Locomotion Activity” value was determined as 88% with spontaneous locomotion (3 mg/kg intraperitoneally), 95% in the data set with spontaneous locomotion (10 mg/kg intraperitoneally) and 97% with spontaneous locomotion (30 mg/kg intraperitoneally). For the same compound, the “Screen Test Failure” value in data set [1] (3 mg/kg intraperitoneally) is 11%; in data set [1] (10 mg/kg intraperitoneally) it was 22%; in data set [1] (30 mg/kg intraperitoneally), 55%.
As to `Cc1cc2c(cc1C)OCC(Nc1ncnc3c1ncn3[C@@H]1O[C@H](CO)[C@@H](O)[C@H]1O)C2` (stereo partly drawn) [Example 9, N^6-[6,7-Dimethyl-3-chromanylamino]adenosine], the IC50 at adenosine A2 receptor came to 1240 nM. In addition, the “Inhibition of Mouse Locomotion Activity” value in the data set on spontaneous locomotion (1 mg/kg intraperitoneally) was found to be 11%; in the data set on spontaneous locomotion (3 mg/kg intraperitoneally), 34%; in the data set with spontaneous locomotion (10 mg/kg intraperitoneally) it was 77%; with spontaneous locomotion (30 mg/kg intraperitoneally), 96%; with spontaneous locomotion (100 mg/kg intraperitoneally), 97%. The “Screen Test Failure” value in data set [1] (1 mg/kg intraperitoneally) stood at 0%; in data set [1] (3 mg/kg intraperitoneally) it was 0%; in data set [1] (10 mg/kg intraperitoneally) it was 22%; in data set [1] (30 mg/kg intraperitoneally), 44%; in data set [1] (100 mg/kg intraperitoneally) it was 77%.
Turning to `OC[C@H]1O[C@@H](n2cnc3c(NC4COc5c(Cl)cccc5C4)ncnc32)[C@H](O)[C@@H]1O` (stereo partly drawn) [Example 5], the IC50 at adenosine A2 receptor stood at 210 nM. Moreover, the “Inhibition of Mouse Locomotion Activity” value with spontaneous locomotion (1 mg/kg intraperitoneally) is -14%; in the data set with spontaneous locomotion (3 mg/kg intraperitoneally), 30%; in the data set on spontaneous locomotion (10 mg/kg intraperitoneally), 89%; in the data set on spontaneous locomotion (30 mg/kg intraperitoneally), 97%; in the data set with spontaneous locomotion (100 mg/kg intraperitoneally), 99%. The “Screen Test Failure” value in data set [1] (1 mg/kg intraperitoneally) is on record as 0%; in data set [1] (3 mg/kg intraperitoneally) it was 0%; in data set [1] (10 mg/kg intraperitoneally), 22%; in data set [1] (30 mg/kg intraperitoneally), 55%; in data set [1] (100 mg/kg intraperitoneally) it was 44%.
As for `OC[C@H]1O[C@@H](n2cnc3c(NC4CCOc5ccccc54)ncnc32)[C@H](O)[C@@H]1O` (stereo partly drawn) [Example 1], the IC50 on adenosine A2 receptor came out at 600 nM. For the same compound, the results for the “Inhibition of Mouse Locomotion Activity” value with spontaneous locomotion (3 mg/kg intraperitoneally), in the data set on spontaneous locomotion (10 mg/kg intraperitoneally) and in the data set on spontaneous locomotion (30 mg/kg intraperitoneally) were 91%, 94% and 97%, respectively. For the same compound, the figures for the “Screen Test Failure” value in data set [1] (3 mg/kg intraperitoneally), in data set [1] (10 mg/kg intraperitoneally) and in data set [1] (30 mg/kg intraperitoneally) were 33%, 33% and 22%, respectively.
For the compound `COc1cc(OC)c2c(c1)OC(C)(C)CC2Nc1ncnc2c1ncn2[C@@H]1O[C@H](CO)[C@@H](O)[C@H]1O` (stereo partly drawn) [Example 14], the IC50 at adenosine A2 receptor was determined as 37900 nM. The figures for the “Inhibition of Mouse Locomotion Activity” value in the data set on spontaneous locomotion (10 mg/kg intraperitoneally), with spontaneous locomotion (30 mg/kg intraperitoneally) and in the data set on spontaneous locomotion (100 mg/kg intraperitoneally) were 8%, 13% and 2%, respectively. The “Screen Test Failure” value in data set [1] (10 mg/kg intraperitoneally), in data set [1] (30 mg/kg intraperitoneally) and in data set [1] (100 mg/kg intraperitoneally) was 0% throughout.
Consider `CC1Oc2ccccc2CC1Nc1ncnc2c1ncn2C1OC(CO)C(O)C1O` (stereo not drawn) [Example 7, N^6-[cis-2-Methyl-3-chromanylamino]adenosine], for which the IC50 on adenosine A2 receptor is 1840 nM. The “Inhibition of Mouse Locomotion Activity” value in the data set on spontaneous locomotion (0.3 mg/kg intraperitoneally) was 6%; in the data set with spontaneous locomotion (1 mg/kg intraperitoneally), 57%; in the data set on spontaneous locomotion (3 mg/kg intraperitoneally), 95%; in the data set on spontaneous locomotion (9.0 mg/kg intraperitoneally) it was 96%; in the data set on spontaneous locomotion (30 mg/kg intraperitoneally), 93%. Further, the “Screen Test Failure” value was 0% in data set [1] (0.3 mg/kg intraperitoneally); 0% in data set [1] (1 mg/kg intraperitoneally); 22% in data set [1] (3 mg/kg intraperitoneally); 55% in data set [1] (9.0 mg/kg intraperitoneally); 100% in data set [1] (30 mg/kg intraperitoneally).
With `OC[C@H]1O[C@@H](n2cnc3c(NC4COc5ccccc5C4)ncnc32)[C@H](O)[C@@H]1O` (stereo partly drawn) [Example 4, N^6-[3-Chromanylamino]adenosine], at adenosine A2 receptor, the IC50 is 610 nM. Further, the “Inhibition of Mouse Locomotion Activity” value is 36% with spontaneous locomotion (1 mg/kg intraperitoneally); 87% with spontaneous locomotion (3 mg/kg intraperitoneally); 94% in the data set with spontaneous locomotion (10 mg/kg intraperitoneally); 99% with spontaneous locomotion (30 mg/kg intraperitoneally); 98% in the data set on spontaneous locomotion (100 mg/kg intraperitoneally). The “Screen Test Failure” value was 22% in data set [1] (1 mg/kg intraperitoneally); 11% in data set [1] (3 mg/kg intraperitoneally); 11% in data set [1] (10 mg/kg intraperitoneally); 100% in data set [1] (30 mg/kg intraperitoneally); 88% in data set [1] (100 mg/kg intraperitoneally).
For `C[C@H]1Oc2ccccc2C[C@@H]1Nc1ncnc2c1ncn2[C@@H]1O[C@H](CO)[C@@H](O)[C@H]1O` (relative stereo) [Example 8, N^l-[trans-2-Methyl,-3-chromanylamino]adenosine], the IC50 on adenosine A2 receptor amounted to 490 nM. In addition, the “Inhibition of Mouse Locomotion Activity” value is reported as 52% with spontaneous locomotion (1 mg/kg intraperitoneally); 84% in the data set with spontaneous locomotion (3 mg/kg intraperitoneally); 95% in the data set on spontaneous locomotion (10 mg/kg intraperitoneally); 98% in the data set on spontaneous locomotion (30 mg/kg intraperitoneally); 99% with spontaneous locomotion (100 mg/kg intraperitoneally). The “Screen Test Failure” value is 0% in data set [1] (1 mg/kg intraperitoneally); 11% in data set [1] (3 mg/kg intraperitoneally); 0% in data set [1] (10 mg/kg intraperitoneally); 11% in data set [1] (30 mg/kg intraperitoneally); 33% in data set [1] (100 mg/kg intraperitoneally).
